Assay results published in patent publication US11439707B2, “Hypocrellin derivative substituted both in a peri-position and in 2-position by amino, preparation method, and application thereof” (priority 2017, dated 2022).

What was measured:
[1] = absorption spectrum (maximum absorption wavelength, molar extinction coefficient); format: physicochemical
[2] = singlet oxygen efficiency test, reference rose bengal; format: physicochemical

Row | Compound | maximum absorption wavelength [1] [nm] | molar extinction coefficient [1] | singlet oxygen yield [2] [%]
1 | COc1c(NC2CCCC(C(=O)O)C2)c2c(=O)cc(OC)c3c4c(OC)cc(=O)c5c(O)c(NC6CCCC(C(=O)O)C6)c6c(c(c1C(C(C)=O)C(C)=C6)c23)c54 (stereo not drawn) [HB-15b] | 623 | 27,000 M^−1cm^−1 | 24
2 | COc1c2c3c4c(c(NCC[N+]56CC[N+](C)(CC5)CC6)c(=O)c5c(NCC[N+]67CC[N+](C)(CC6)CC7)cc(OC)c(c6c(OC)cc(O)c(c1=O)c63)c54)C=C(C)C2C(C)=O (stereo not drawn) [HB-41c] | 621 | 33,500 M^−1cm^−1 | 35
3 | COc1c2c3c4c(c(NCCCC(=O)O)c(=O)c5c(O)cc(OC)c(c6c(OC)cc(NCCCC(=O)O)c(c1=O)c63)c54)C=C(C)C2C(C)=O (stereo not drawn) [HB-8d] | 624 | 29,000 M^−1cm^−1 | 26
4 | COc1c(O)c2c(=O)cc(OC)c3c4c(OC)cc(=O)c5c(NCc6ccccn6)c(NCc6ccccn6)c6c(c(c1C(C(C)=O)C(C)=C6)c23)c54 (stereo not drawn) [HB-38a] | 624 | 19,000 M^−1cm^−1 | 16
5 | COCCOCCOCCOCCOCCOCCOCCOCCOCCOCCOCCOCCOC(=O)CCCNc1c2c3c4c(c(OC)c(=O)c5c(O)cc(OC)c(c6c(OC)cc(NCCCC(=O)OCCOCCOCCOCCOCCOCCOCCOCCOCCOCCOCCOCCOC)c(c1=O)c63)c54)CC(C)=C2 [HC-8c-PEG12] | 628 | 32,500 M^−1cm^−1 | 38
6 | COCCOCCOCCOCCOCCOCCOCCOCCOCCOCCOCCOCCOC(=O)C1CCCC(Nc2c3c4c5c(c(OC)c(=O)c6c(O)cc(OC)c(c7c(OC)cc(NC8CCCC(C(=O)OCCOCCOCCOCCOCCOCCOCCOCCOCCOCCOCCOCCOC)C8)c(c2=O)c74)c65)C(C(C)=O)C(C)=C3)C1 (stereo not drawn) [HB-15c-PEG12] | 630 | 33,000 M^−1cm^−1 | 35
7 | COC(=O)C1CCC(CNc2c3c4c5c(c(OC)c(=O)c6c(O)cc(OC)c(c7c(OC)cc(NCC8CCC(C(=O)OC)CC8)c(c2=O)c74)c65)C(C(C)=O)C(C)=C3)CC1 (stereo not drawn) [HB-13c-AcE] | 621 | 28,500 M^−1cm^−1 | 30
8 | COCCOCCC(=O)OC1CCC(Nc2c(NC3CCC(OC(=O)CCOCCOC)C3)c3c(=O)cc(OC)c4c5c(OC)cc(=O)c6c(O)c(OC)c7c(c(c2C=C(C)C7C(C)=O)c34)c65)C1 (stereo not drawn) [HB-20a-PEG1] | 624 | 31,000 M^−1cm^−1 | 30
9 | COc1c(O)c2c(=O)cc(OC)c3c4c(OC)cc(=O)c5c(NC6CCC(C(=O)O)C6)c(NC6CCC(C(=O)O)C6)c6c(c(c1C(C(C)=O)C(C)=C6)c23)c54 (stereo not drawn) [HB-19a] | 621 | 25,500 M^−1cm^−1 | 21
10 | COc1c2c3c4c(c(NCCOC(=O)N5CC(=O)NC(=O)C5)c(=O)c5c(O)cc(OC)c(c6c(OC)cc(NCCOC(=O)N7CC(=O)NC(=O)C7)c(c1=O)c63)c54)C=C(C)C2C(C)=O (stereo not drawn) [HB-40d] | 628 | 31,500 M^−1cm^−1 | 30
11 | COc1c(O)c2c(=O)cc(OC)c3c4c(OC)cc(=O)c5c(NCCC6CCC(O)CC6)c(NCCC6CCC(O)CC6)c6c(c(c1C(C(C)=O)C(C)=C6)c23)c54 (stereo not drawn) [HB-18a] | 614 | 24,000 M^−1cm^−1 | 20
12 | COc1c2c3c4c(c(NC5CCC(C(=O)O)C5)c(=O)c5c(NC6CCC(C(=O)O)C6)cc(OC)c(c6c(OC)cc(O)c(c1=O)c63)c54)C=C(C)C2C(C)=O (stereo not drawn) [HB-19c] | 622 | 25,500 M^−1cm^−1 | 24
13 | COCCOC(=O)C1CCC(Nc2c(NC3CCC(C(=O)OCCOC)CC3)c3c(=O)cc(OC)c4c5c(OC)cc(=O)c6c(O)c(OC)c7c(c(c2C=C(C)C7C(C)=O)c34)c65)CC1 (stereo not drawn) [HB-14a-PEG1] | 622 | 30,500 M^−1cm^−1 | 32
14 | COc1c2c3c4c(c(NCCCC(=O)NCCCCCC[N+](C)(C)C)c(=O)c5c(NCCCC(=O)NCCCCCC[N+](C)(C)C)cc(OC)c(c6c(OC)cc(O)c(c1=O)c63)c54)C=C(C)C2 [HC-8c-NH—C6-N^+] | 634 | 32,000 M^−1cm^−1 | 36
15 | COc1c(O)c2c(=O)cc(OC)c3c4c(OC)cc(=O)c5c(NC6CCCC(C(=O)O)C6)c(NC6CCCC(C(=O)O)C6)c6c(c(c1C(C(C)=O)C(C)=C6)c23)c54 (stereo not drawn) [HB-15a] | 625 | 27,000 M^−1cm^−1 | 25
16 | COc1c(NC2CCC(O)CC2)c2c(=O)cc(OC)c3c4c(OC)cc(=O)c5c(O)c(NC6CCC(O)CC6)c6c(c(c1C(C(C)=O)C(C)=C6)c23)c54 (stereo not drawn) [HB-17b] | 620 | 25,500 M^−1cm^−1 | 20
17 | COCCOCCNC(=O)CCNc1c(NCCC(=O)NCCOCCOC)c2c(=O)cc(OC)c3c4c(OC)cc(=O)c5c(O)c(OC)c6c(c(c1C=C(C)C6C(C)=O)c23)c54 (stereo not drawn) [HB-10a-NH-PEG1] | 621 | 31,500 M^−1cm^−1 | 30

Row | Compound | maximum absorption wavelength [1] [nm] | molar extinction coefficient [1] | singlet oxygen yield [2] [%]
18 | CCCCCCNc1c(O)c2c(=O)cc(OC)c3c4c(OC)cc(=O)c5c(NCCCCCC)c(OC)c6c(c(c1C=C(C)C6)c23)c54 [HC-34b] | 620 | 31,500 M^−1cm^−1 | 32
19 | COc1c(NCCOCCO)c2c(=O)cc(OC)c3c4c(OC)cc(=O)c5c(O)c(NCCOCCO)c6c(c(c1C(C(C)=O)C(C)=C6)c23)c54 (stereo not drawn) [HB-1b] | 622 | 28,000 M^−1cm^−1 | 36
20 | COc1c(O)c2c(=O)cc(OC)c3c4c(OC)cc(=O)c5c(NCC6CCC(C(=O)NCCS(=O)(=O)O)CC6)c(NCC6CCC(C(=O)NCCS(=O)(=O)O)CC6)c6c(c(c1CC(C)=C6)c23)c54 (stereo not drawn) [HC-13a-C2-SO3H] | 622 | 31,000 M^−1cm^−1 | 32
21 | COc1c(NCc2ccccn2)c2c(=O)cc(OC)c3c4c(OC)cc(=O)c5c(O)c(NCc6ccccn6)c6c(c(c1C(C(C)=O)C(C)=C6)c23)c54 (stereo not drawn) [HB-38b] | 621 | 18,500 M^−1cm^−1 | 16
22 | COc1c(NCC(=O)O)c2c(=O)cc(OC)c3c4c(OC)cc(=O)c5c(O)c(NCC(=O)O)c6c(c(c1C(C(C)=O)C(C)=C6)c23)c54 (stereo not drawn) [HB-7b] | 622 | 28,000 M^−1cm^−1 | 25
23 | COc1c2c3c4c(c(NCc5cccc[n+]5CCCC(=O)O)c(=O)c5c(O)cc(OC)c(c6c(OC)cc(NCc7cccc[n+]7CCCC(=O)O)c(c1=O)c63)c54)C=C(C)C2C(C)=O (stereo not drawn) [HB-38d-N—COOH] | 626 | 21,000 M^−1cm^−1 | 20
24 | COc1c(NCCC2CCC(O)CC2)c2c(=O)cc(OC)c3c4c(OC)cc(=O)c5c(O)c(NCCC6CCC(O)CC6)c6c(c(c1C(C(C)=O)C(C)=C6)c23)c54 (stereo not drawn) [HB-18b] | 621 | 24,500 M^−1cm^−1 | 21
25 | COc1c(NC2CCCCC2C(=O)O)c2c(=O)cc(OC)c3c4c(OC)cc(=O)c5c(O)c(NC6CCCCC6C(=O)O)c6c(c(c1C(C(C)=O)C(C)=C6)c23)c54 (stereo not drawn) [HB-16b] | 625 | 26,000 M^−1cm^−1 | 26
26 | COc1c2c3c4c(c(NC(CS)C(=O)O)c(=O)c5c(O)cc(OC)c(c6c(OC)cc(NC(CS)C(=O)O)c(c1=O)c63)c54)C=C(C)C2C(C)=O (stereo not drawn) [HB-25d] | 630 | 20,500 M^−1cm^−1 | 18
27 | CCNc1c(O)c2c(=O)c(SCCO)c(OC)c3c4c(OC)cc(=O)c5c(NC6CCCC6)c(OC)c6c(c(c1C=C(C)C6C(C)=O)c23)c54 (stereo not drawn) [HB-S-44b] | 622 | 21,000 M^−1cm^−1 | 18
28 | COC(=O)C(CO)Nc1c(NC(CO)C(=O)OC)c2c(=O)cc(OC)c3c4c(OC)cc(=O)c5c(O)c(OC)c6c(c(c1C=C(C)C6C(C)=O)c23)c54 (stereo not drawn) [HB-24a] | 625 | 20,500 M^−1cm^−1 | 20
29 | COc1c2c3c4c(c(NCc5ccccn5)c(=O)c5c(O)cc(OC)c(c6c(OC)cc(NCc7ccccn7)c(c1=O)c63)c54)C=C(C)C2C(C)=O (stereo not drawn) [HB-38d] | 624 | 18,500 M^−1cm^−1 | 17
30 | COCCOCCOCCOCCOCCOCCOCCOCCOCCOCCOCCOCCOCCC(=O)N1CCC(CNc2c3c4c5c(c(OC)c(=O)c6c(NCC7CCN(C(=O)CCOCCOCCOCCOCCOCCOCCOCCOCCOCCOCCOCCOCCOC)CC7)cc(OC)c(c7c(OC)c(Br)c(O)c(c2=O)c47)c65)C(C(C)=O)C(C)=C3)CC1 (stereo not drawn) [HB-31d-Br-PEG12] | 632 | 31,500 M^−1cm^−1 | 33
31 | COc1c2c3c4c(c(NCCCCCCS(=O)(=O)O)c(=O)c5c(NCCCCCCS(=O)(=O)O)cc(OC)c(c6c(OC)cc(O)c(c1=O)c63)c54)C=C(C)C2C(C)=O (stereo not drawn) [HB-11c-C6-SO3H] | 626 | 31,500 M^−1cm^−1 | 38
32 | CCNNc1c(NNCC)c2c(=O)cc(OC)c3c4c(OC)cc(=O)c5c(O)c(OC)c6c(c(c1C=C(C)C6C(C)=O)c23)c54 (stereo not drawn) [HB-36a] | 621 | 30,500 M^−1cm^−1 | 32
33 | COCCOCCNc1c(NCCCC(=O)O)c2c3c4c(c(OC)c(O)c5c(=O)cc(OC)c(c6c(OC)cc(=O)c1c63)c54)C(C(C)=O)C(C)=C2 (stereo not drawn) [HB-47a-PEG1] | 622 | 30,500 M^−1cm^−1 | 30
